System: A549 human lung carcinoma cells
Test: Intracellular fluorescence by flow cytometry
Type: cell-based
Protocol: The cellular uptake of 1 was studied using a range of cell lines with different expression levels of MMP-2, namely the MMP-2-overexpressed A549 human lung carcinoma cells[73] and U-87 MG human glioblastoma cells,[74] as well as the low MMP-2-expressed HeLa human cervical carcinoma cells[75] and HEK-293 human embryonic kidney normal cells.[76] The cells were incubated with 1 (2 μM) in a serum-free medium for 1 h and then in the neat medium for a further 6 h to provide sufficient time for enzymatic cleavage. […] Similar results were obtained by flow cytometry (Figure 5b). The quantified fluorescence intensity for A549 cells was 3.8-fold that for HEK-293 cells. […] After subsequent cleavage of the remaining GFLG linker by the intrinsic cathepsin B inside the cells, the probe was activated favorably, leading to higher intracellular fluorescence intensity.
The cells were pretreated with SB-3CT (10 μM) and/or CA-074 Me (25 μM) or simply the neat medium for 2 h, followed by incubation with 1 (2 μM) for a further 1 h. […] The fluorescence images of the cells under all these conditions were captured using a confocal laser scanning microscope. […] For the cells with pretreatment with both inhibitors, fluorescence due to 1 could hardly be seen. Similarly, for the cells being incubated with 14, the intracellular fluorescence was negligible. […]
Confocal Fluorescence Microscopic Studies […]

## CCN(CC)c1ccc2nc3ccc(/N=N/c4ccc(N(C)CCCNC(=O)OC[C@@H]5[C@@H]6CCc7nnn(CC(=O)NCCCC[C@@H]8NC(=O)CNC(=O)[C@H](CCCCN)NC(=O)[C@H](CCCNC(=N)N)NC(=O)[C@H](C(C)C)NC(=O)CNC(=O)[C@H](CC(C)C)NC(=O)[C@@H]9CCCN9C(=O)[C@H](CCCCN)NC(=O)[C@@H](N)CSCc9cc(COc%10ccc(C%11=C%12C(C)=C(I)C(/C=C/c%13ccc(OCCOCCOCCOC)cc%13)=[N+]%12[B-](F)(F)n%12c(/C=C/c%13ccc(OCCOCCOCCOC)cc%13)c(I)c(C)c%12%11)cc%10)cc(c9)CSC[C@@H](C(N)=O)NC(=O)[C@H](CCCCN)NC(=O)[C@H](CCCCN)NC(=O)CNC(=O)[C@H](CC(C)C)NC(=O)[C@H](Cc9ccccc9)NC(=O)CNC(=O)[C@H](CCCCN)NC(=O)CNC8=O)c7CC[C@@H]65)cc4)cc3[n+](-c3ccccc3)c2c1 [compound 1]
2 μM, 1 h in serum-free medium, then 6 h in neat medium, three independent experiments
  intracellular fluorescence intensity, A549 relative to HEK-293 cells: 3.8 fold
A549, 2 μM 1 h + 6 h, SB-3CT (10 μM) and CA-074 Me (25 μM) 2 h pretreatment
  intracellular fluorescence intensity, untreated cells relative to cells pretreated with the two inhibitors: 5.6 fold

From paper PMC10080691, “Enzyme-Responsive Double-Locked Photodynamic Molecular Beacon for Targeted Photodynamic Anticancer Therapy” (Journal of the American Chemical Society, 2023)
